In PubChem BioAssay AID1918953 (Molecular Pharmacology Branch, DTP, NCI, 2023):
“And” between values parts separate entries of the source, which are not always exact repeats. Equal entries are not always repeated. Each block holds one molecule with its values, some of them ahead of it.

Tested on: MDA-MB-231 complex spheroid viability
Experiment: Anticancer human tumor MDA-MB-231/ATCC cell line growth inhibition;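 note: drug exposure lasted 7 days starting on day 3 of spheroid growth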
Settings: for viability, T/C: stronger effect = lower value
Procedure, shortened: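 Drug combinations with the LSD1 inhibitor iadademstat tested on tumor cells co-cultured as spheroids with endothelial cells and mesenchymal stem cells. Concentrations descended in half-log increments from clinical Cmax or 10 microM.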

[1] = curve of first compound, second compound 0.1 µM
[2] = curve of first compound, second compound 0.316 µM
[3] = curve of first compound, second compound 1 µM
[4] = curve of first compound, second compound 3.16 µM
[5] = curve of first compound, second compound 10 µM
[6] = second compound 0.1 µM, first compound 0.00949 µM
[7] = second compound 0.1 µM, first compound 0.03 µM
[8] = second compound 0.1 µM, first compound 0.0949 µM
[9] = second compound 0.1 µM, first compound 0.3 µM
[10] = second compound 0.316 µM, first compound 0.00949 µM
[11] = second compound 0.316 µM, first compound 0.03 µM
[12] = second compound 0.316 µM, first compound 0.0949 µM
[13] = second compound 0.316 µM, first compound 0.3 µM
[14] = second compound 1 µM, first compound 0.00949 µM
[15] = second compound 1 µM, first compound 0.03 µM
[16] = second compound 1 µM, first compound 0.0949 µM
[17] = second compound 1 µM, first compound 0.3 µM
[18] = second compound 3.16 µM, first compound 0.00949 µM
[19] = second compound 3.16 µM, first compound 0.03 µM
[20] = second compound 3.16 µM, first compound 0.0949 µM
[21] = second compound 3.16 µM, first compound 0.3 µM
[22] = second compound 10 µM, first compound 0.00949 µM
[23] = second compound 10 µM, first compound 0.03 µM
[24] = second compound 10 µM, first compound 0.0949 µM
[25] = second compound 10 µM, first compound 0.3 µM
[26] = second compound 0.1 µM, first compound 0.00316 µM
[27] = second compound 0.1 µM, first compound 0.01 µM
[28] = second compound 0.1 µM, first compound 0.0316 µM
[29] = second compound 0.1 µM, first compound 0.1 µM
[30] = second compound 0.316 µM, first compound 0.00316 µM
[31] = second compound 0.316 µM, first compound 0.01 µM
[32] = second compound 0.316 µM, first compound 0.0316 µM
[33] = second compound 0.316 µM, first compound 0.1 µM
[34] = second compound 1 µM, first compound 0.00316 µM
[35] = second compound 1 µM, first compound 0.01 µM
[36] = second compound 1 µM, first compound 0.0316 µM
[37] = second compound 1 µM, first compound 0.1 µM
[38] = second compound 3.16 µM, first compound 0.00316 µM
[39] = second compound 3.16 µM, first compound 0.01 µM
[40] = second compound 3.16 µM, first compound 0.0316 µM
[41] = second compound 3.16 µM, first compound 0.1 µM
[42] = second compound 10 µM, first compound 0.00316 µM
[43] = second compound 10 µM, first compound 0.01 µM
[44] = second compound 10 µM, first compound 0.0316 µM
[45] = second compound 10 µM, first compound 0.1 µM

Compound: Nc1ccn(C2OC(CO)C(O)C2(F)F)c(=O)n1 (stereo not drawn) + NC1CC1c1ccc(-c2cccc(O)c2)cc1
IC50 [1]: < 0.949 nM | IC50 [2]: < 0.949 nM | IC50 [3]: < 0.949 nM | IC50 [4]: < 0.949 nM | IC50 [5]: < 0.949 nM | viability, T/C (second compound 0.1 µM, first compound 0.000949 µM): 30.5% | viability, T/C (second compound 0.1 µM, first compound 0.003 µM): 24.4% | viability, T/C [6]: 22.2% | viability, T/C [7]: 19.4% | viability, T/C [8]: 17.4% | viability, T/C [9]: 12% | viability, T/C (second compound 0.316 µM, first compound 0.000949 µM): 28% | viability, T/C (second compound 0.316 µM, first compound 0.003 µM): 23.6% | viability, T/C [10]: 21.3% | viability, T/C [11]: 14.5% | viability, T/C [12]: 14.1% | viability, T/C [13]: 12.9% | viability, T/C (second compound 1 µM, first compound 0.000949 µM): 30.8% | viability, T/C (second compound 1 µM, first compound 0.003 µM): 21.8% | viability, T/C [14]: 22.4% | viability, T/C [15]: 15.6% | viability, T/C [16]: 15.3% | viability, T/C [17]: 12.3% | viability, T/C (second compound 3.16 µM, first compound 0.000949 µM): 33.8% | viability, T/C (second compound 3.16 µM, first compound 0.003 µM): 23.9% | viability, T/C [18]: 19.9% | viability, T/C [19]: 17.5% | viability, T/C [20]: 15.8% | viability, T/C [21]: 11.3% | viability, T/C (second compound 10 µM, first compound 0.000949 µM): 22.9% | viability, T/C (second compound 10 µM, first compound 0.003 µM): 18.1% | viability, T/C [22]: 16% | viability, T/C [23]: 13.6% | viability, T/C [24]: 10.9% | viability, T/C [25]: 9.95%

Compound: CC(C)CC(NC(=O)CNC(=O)c1cc(Cl)ccc1Cl)B1OC(=O)CC(CC(=O)O)(C(=O)O)O1 (stereo not drawn) + NC1CCC(NC2CC2c2ccccc2)CC1
IC50 [1]: 7.26 nM | IC50 [2]: 7.08 nM | IC50 [3]: 7.23 nM | IC50 [4]: 5.75 nM | IC50 [5]: 3.98 nM | viability, T/C (second compound 0.1 µM, first compound 0.000316 µM): 105% | viability, T/C (second compound 0.1 µM, first compound 0.001 µM): 110% | viability, T/C [26]: 85% | viability, T/C [27]: 36.5% | viability, T/C [28]: 5.81% | viability, T/C [29]: 0.78% | viability, T/C (second compound 0.316 µM, first compound 0.000316 µM): 98.9% | viability, T/C (second compound 0.316 µM, first compound 0.001 µM): 107% | viability, T/C [30]: 81.8% | viability, T/C [31]: 36.4% | viability, T/C [32]: 5.22% | viability, T/C [33]: 0.88% | viability, T/C (second compound 1 µM, first compound 0.000316 µM): 102% | viability, T/C (second compound 1 µM, first compound 0.001 µM): 107% | viability, T/C [34]: 85.8% | viability, T/C [35]: 36% | viability, T/C [36]: 4.74% | viability, T/C [37]: 0.52% | viability, T/C (second compound 3.16 µM, first compound 0.000316 µM): 83.8% | viability, T/C (second compound 3.16 µM, first compound 0.001 µM): 86.7% | viability, T/C [38]: 69.4% | viability, T/C [39]: 31.7% | viability, T/C [40]: 3.87% | viability, T/C [41]: 0.63% | viability, T/C (second compound 10 µM, first compound 0.000316 µM): 57.6% | viability, T/C (second compound 10 µM, first compound 0.001 µM): 61.2% | viability, T/C [42]: 55.8% | viability, T/C [43]: 25.7% | viability, T/C [44]: 2.19% | viability, T/C [45]: 0.65%

IC50 (curve of compound): 5.04 nM and < 3.16 nM
Compound: O=C(C=Cn1cnc(-c2cc(C(F)(F)F)cc(C(F)(F)F)c2)n1)NNc1cnccn1
viability, T/C (compound 0.00316 µM): 61.8% and 35.1% | viability, T/C (compound 0.01 µM): 32.6% and 31.3% | viability, T/C (compound 0.0316 µM): 11.5% and 11.8% | viability, T/C (compound 0.1 µM): 9.25% and 3.52% | viability, T/C (compound 0.316 µM): 10.8% and 3.53% | viability, T/C (compound 1 µM): 5.27% and 4.37%

IC50 (curve of compound): > 10000 nM and 3920 nM
Compound: O=C(c1cc(Cc2n[nH]c(=O)c3ccccc23)ccc1F)N1CCN(C(=O)C2CC2)CC1
viability, T/C (compound 0.0316 µM): 92.4% and 88.5% | viability, T/C (compound 0.1 µM): 97.9% and 79.2% | viability, T/C (compound 0.316 µM): 85.6% and 79.3% | viability, T/C (compound 1 µM): 72.1% and 69.9% | viability, T/C (compound 3.16 µM): 68.6% and 53.2% | viability, T/C (compound 10 µM): 56.6% and 32.6%

Compound: CC1COCCN1c1cc(-c2ccnn2C)c2ccnc(-c3ccn[nH]3)c2n1 (stereo not drawn) + NC1CC1c1ccc(-c2cccc(O)c2)cc1
IC50 [1]: < 3.16 nM | IC50 [2]: < 3.16 nM | IC50 [3]: < 3.16 nM | IC50 [4]: < 3.16 nM | IC50 [5]: < 3.16 nM | viability, T/C [26]: 38.1% | viability, T/C [27]: 32% | viability, T/C [28]: 20.5% | viability, T/C [29]: 16.4% | viability, T/C (second compound 0.1 µM, first compound 0.316 µM): 15.8% | viability, T/C (second compound 0.1 µM, first compound 1 µM): 21.4% | viability, T/C [30]: 32.1% | viability, T/C [31]: 28.7% | viability, T/C [32]: 20.7% | viability, T/C [33]: 16.6% | viability, T/C (second compound 0.316 µM, first compound 0.316 µM): 15.8% | viability, T/C (second compound 0.316 µM, first compound 1 µM): 22.5% | viability, T/C [34]: 33.5% | viability, T/C [35]: 30.8% | viability, T/C [36]: 20.9% | viability, T/C [37]: 15.3% | viability, T/C (second compound 1 µM, first compound 0.316 µM): 14.3% | viability, T/C (second compound 1 µM, first compound 1 µM): 24% | viability, T/C [38]: 33.4% | viability, T/C [39]: 27.9% | viability, T/C [40]: 19.7% | viability, T/C [41]: 16.9% | viability, T/C (second compound 3.16 µM, first compound 0.316 µM): 15.2% | viability, T/C (second compound 3.16 µM, first compound 1 µM): 22% | viability, T/C [42]: 25.7% | viability, T/C [43]: 20.7% | viability, T/C [44]: 18.1% | viability, T/C [45]: 16.2% | viability, T/C (second compound 10 µM, first compound 0.316 µM): 15% | viability, T/C (second compound 10 µM, first compound 1 µM): 20.5%

IC50 (curve of compound): 230 nM and 79.9 nM
Compound: NS(=O)(=O)OCC1CC(n2ccc3c(NC4CCc5ccccc54)ncnc32)CC1O (stereo not drawn)
viability, T/C (compound 0.00949 µM): 140% and 117% | viability, T/C (compound 0.03 µM): 119% and 91% | viability, T/C (compound 0.0949 µM): 71.6% and 43.9% | viability, T/C (compound 0.3 µM): 43.7% and 22.5% | viability, T/C (compound 0.949 µM): 37.5% and 26.5% | viability, T/C (compound 3 µM): 34.5% and 26.1%

Compound: Nc1ccccc1NC(=O)c1ccc(CNC(=O)OCc2cccnc2)cc1 + NC1CC1c1ccc(-c2cccc(O)c2)cc1
IC50 [1]: 13.3 nM | IC50 [2]: 10.5 nM | IC50 [3]: < 9.49 nM | IC50 [4]: < 9.49 nM | IC50 [5]: < 9.49 nM | viability, T/C [6]: 56.6% | viability, T/C [7]: 34.9% | viability, T/C [8]: 22.7% | viability, T/C [9]: 12.2% | viability, T/C (second compound 0.1 µM, first compound 0.949 µM): 2.07% | viability, T/C (second compound 0.1 µM, first compound 3 µM): 0.17% | viability, T/C [10]: 52.7% | viability, T/C [11]: 31.5% | viability, T/C [12]: 21% | viability, T/C [13]: 10.6% | viability, T/C (second compound 0.316 µM, first compound 0.949 µM): 1.85% | viability, T/C (second compound 0.316 µM, first compound 3 µM): 0.16% | viability, T/C [14]: 43.3% | viability, T/C [15]: 27% | viability, T/C [16]: 21.7% | viability, T/C [17]: 9.99% | viability, T/C (second compound 1 µM, first compound 0.949 µM): 1.67% | viability, T/C (second compound 1 µM, first compound 3 µM): 0.15% | viability, T/C [18]: 46.3% | viability, T/C [19]: 31.6% | viability, T/C [20]: 21.3% | viability, T/C [21]: 13.3% | viability, T/C (second compound 3.16 µM, first compound 0.949 µM): 1.34% | viability, T/C (second compound 3.16 µM, first compound 3 µM): 0.13% | viability, T/C [22]: 36.3% | viability, T/C [23]: 22.1% | viability, T/C [24]: 12% | viability, T/C [25]: 7.05% | viability, T/C (second compound 10 µM, first compound 0.949 µM): 0.48% | viability, T/C (second compound 10 µM, first compound 3 µM): 0.24%

IC50 (curve of compound): 53.2 nM and 31.4 nM
Compound: Nc1ccccc1NC(=O)c1ccc(CNC(=O)OCc2cccnc2)cc1
viability, T/C (compound 0.00949 µM): 81.5% and 86.7% | viability, T/C (compound 0.03 µM): 56.5% and 52.2% | viability, T/C (compound 0.0949 µM): 39.4% and 21.1% | viability, T/C (compound 0.3 µM): 28.1% and 12.2% | viability, T/C (compound 0.949 µM): 15.4% and 4.07% | viability, T/C (compound 3 µM): 3.56% and 0.18%
